Like-named read-outs stand apart in the source and are kept apart here.
Experiments:
[1] = 1H NMR titration of di- and trivalent metals over UTP (KD1); assay type: binding; details: metal 0-1400 µM, UTP 239.2 or 250 µM, 293 K, 600 MHz, read-out: KD1, dissociation constant for the interaction of UTP with di- and trivalent metals
UTP:LmUGP complex = experiment: Four-states binding model, metal binding to UTP in complex with LmUGP (KD4); set-up: species or system Leishmania major; details: approximated by nonlinear least-squares minimization of the four-states model from KD1-3
[2] = set-up: method as in Zea et al. [2008]; details: isothermal titration calorimetry; ref Zea et al. [2008]; read-out: KD1, dissociation constant for the interaction of UTP with divalent metals (converted); cited from earlier work

| Structure (SMILES) | Kd [1] | Kd (UTP:LmUGP complex) | Kd [2] |
| --- | --- | --- | --- |
| [Cl][Eu]([Cl])[Cl] [EuCl3] | 28 ± 9 µM | 38 ± 12 µM |  |
| [Cl-].[Cl-].[Mg+2] [MgCl2] | 82 ± 6 µM | 115 ± 10 µM | 70 µM |
| [Cl][Lu]([Cl])[Cl] [LuCl3] | 38 ± 17 µM | 46 ± 21 µM |  |
| [Cl][La]([Cl])[Cl] [LaCl3] | 11 ± 5 µM | 15 ± 7 µM |  |
| [Cl][Ce]([Cl])[Cl] [CeCl3] | 13 ± 4 µM | 17 ± 5 µM |  |
| [Cl][Mn][Cl] [MnCl2] |  |  | 77 ± 12 µM |
